The NIST ThermoML archive (doi:10.1016/j.jct.2007.01.009)

Assay: xn = mol fraction of the nth substance listed
Settings: 101 kPa, Liquid, Pycnometric method

CC(O)CCCCO (stereo unspecified) [1,5-hexanediol] + O
mass density [kg/m3]
Settings | 283.15 K | 288.15 K | 293.15 K | 298.15 K | 303.15 K | 308.15 K
x1 = 0.001 | 999.62 | 999.01 | 998.08 | 996.9 | 995.49 | 993.87
x1 = 0.0021 | 999.54 | 998.92 | 997.97 | 996.78 | 995.34 | 993.69
x1 = 0.0037 | 999.45 | 998.83 | 997.87 | 996.64 | 995.17 | 993.47
x1 = 0.0053 | 999.39 | 998.77 | 997.8 | 996.54 | 995.05 | 993.32
x1 = 0.0071 | 999.38 | 998.74 | 997.74 | 996.46 | 994.97 | 993.19
x1 = 0.0089 | 999.41 | 998.73 | 997.7 | 996.4 | 994.91 | 993.09
x1 = 0.0111 | 999.49 | 998.75 | 997.68 | 996.36 | 994.86 | 992.99
x1 = 0.0145 | 999.68 | 998.84 | 997.7 | 996.34 | 994.79 | 992.85
x1 = 0.0194 | 1000.04 | 999.07 | 997.8 | 996.37 | 994.7 | 992.68
x1 = 0.0324 | 1001.21 | 999.91 | 998.22 | 996.47 | 994.45 | 992.23
x1 = 0.0507 | 1002.48 | 1000.63 | 998.55 | 996.31 | 994.04 | 991.47
x1 = 0.0738 | 1002.95 | 1000.72 | 998.24 | 995.66 | 993.05 | 990.3

CCCCC(O)CO (stereo unspecified) [1,2-hexanediol] + O
mass density [kg/m3]
Settings | 283.15 K | 288.15 K | 293.15 K | 298.15 K | 303.15 K | 308.15 K
x1 = 0.0009 | 999.77 | 999.33 | 998.26 | 997.06 | 995.65 | 993.92
x1 = 0.0018 | 999.85 | 999.35 | 998.28 | 997.06 | 995.66 | 993.92
x1 = 0.0036 | 1000.05 | 999.43 | 998.39 | 997.13 | 995.76 | 993.98
x1 = 0.0055 | 1000.31 | 999.57 | 998.54 | 997.24 | 995.78 | 994.13
x1 = 0.0077 | 1000.69 | 999.81 | 998.75 | 997.43 | 995.64 | 994.227
x1 = 0.009 | 1000.93 | 999.97 | 998.86 | 997.49 | 995.53 | 994.278
x1 = 0.0106 | 1001.22 | 1000.16 | 998.97 | 997.52 | 995.37 | 994.276
x1 = 0.0124 | 1001.49 | 1000.33 | 999.03 | 997.47 | 995.17 | 994.141
x1 = 0.0143 | 1001.65 | 1000.41 | 999.01 | 997.32 | 994.93 | 993.817
x1 = 0.016 | 1001.69 | 1000.38 | 998.91 | 997.13 | 994.7 | 993.395
x1 = 0.0178 | 1001.64 | 1000.25 | 998.73 | 996.87 | 994.45 | 992.869
x1 = 0.0351 | 999.52 | 997.75 | 995.76 | 993.77 | 991.54 | 988.24
x1 = 0.0672 | 995.27 | 993.06 | 990.72 | 988.37 | 985.8 | 981.847
x1 = 0.0968 | 991.84 | 989.37 | 986.7 | 983.93 | 981.37 | 977.569
x1 = 0.1119 | 990.47 | 987.91 | 985.24 | 982.11 | 979.56 | 975.746

OCCCCCCO [1,6-hexanediol] + O
mass density [kg/m3]
Settings | 283.15 K | 288.15 K | 293.15 K | 298.15 K | 303.15 K | 308.15 K
x1 = 0.0009 | 999.67 | 999.02 | 998.12 | 996.93 | 995.54 | 993.92
x1 = 0.0019 | 999.65 | 998.96 | 998.04 | 996.83 | 995.42 | 993.78
x1 = 0.0037 | 999.63 | 998.86 | 997.92 | 996.68 | 995.24 | 993.57
x1 = 0.0054 | 999.64 | 998.8 | 997.84 | 996.58 | 995.11 | 993.41
x1 = 0.0074 | 999.66 | 998.78 | 997.78 | 996.49 | 994.99 | 993.24
x1 = 0.009 | 999.68 | 998.78 | 997.76 | 996.43 | 994.89 | 993.11
x1 = 0.0107 | 999.71 | 998.8 | 997.72 | 996.38 | 994.79 | 992.99
x1 = 0.0125 | 999.76 | 998.83 | 997.7 | 996.32 | 994.69 | 992.87
x1 = 0.0145 | 999.83 | 998.88 | 997.68 | 996.26 | 994.59 | 992.74
x1 = 0.0159 | 999.88 | 998.92 | 997.67 | 996.23 | 994.52 | 992.65
x1 = 0.0177 | 999.96 | 998.98 | 997.66 | 996.18 | 994.43 | 992.54
x1 = 0.0349 | 1000.78 | 999.42 | 997.56 | 995.67 | 993.61 | 991.57
x1 = 0.0514 | 1001.11 | 999.3 | 997.34 | 995.07 | 992.8 | 990.58
x1 = 0.0694 | 1001.08 | 998.88 | 996.87 | 994.3 | 991.84 | 989.39
x1 = 0.0983 | 1000.63 | 997.95 | 995.62 | 992.81 | 990.14 | 987.3
x1 = 0.112 | 1000.09 | 997.54 | 994.84 | 992.04 | 989.26 | 986.33

CC(O)CCC(C)O (stereo unspecified) [2,5-hexanediol] + O
mass density [kg/m3]
Settings | 283.15 K | 288.15 K | 293.15 K | 298.15 K | 303.15 K | 308.15 K
x1 = 0.0008 | 999.67 | 999.06 | 998.13 | 996.94 | 995.52 | 993.87
x1 = 0.002 | 999.6 | 998.98 | 998.04 | 996.84 | 995.4 | 993.73
x1 = 0.0037 | 999.53 | 998.88 | 997.94 | 996.73 | 995.27 | 993.58
x1 = 0.0073 | 999.48 | 998.82 | 997.86 | 996.6 | 995.14 | 993.42
x1 = 0.009 | 999.54 | 998.85 | 997.84 | 996.58 | 995.09 | 993.35
x1 = 0.0102 | 999.61 | 998.88 | 997.84 | 996.58 | 995.07 | 993.31
x1 = 0.0123 | 999.75 | 998.97 | 997.89 | 996.6 | 995.05 | 993.25
x1 = 0.0142 | 999.92 | 999.08 | 997.96 | 996.64 | 995.05 | 993.21
x1 = 0.0159 | 1000.08 | 999.2 | 998.04 | 996.68 | 995.06 | 993.19
x1 = 0.0177 | 1000.27 | 999.34 | 998.14 | 996.74 | 995.07 | 993.17
x1 = 0.0263 | 1001.32 | 1000.14 | 998.73 | 997.13 | 995.23 | 993.17
x1 = 0.0353 | 1002.49 | 1001.07 | 999.39 | 997.56 | 995.43 | 993.19
x1 = 0.0516 | 1004.41 | 1002.55 | 1000.35 | 998.09 | 995.59 | 993
x1 = 0.0672 | 1005.71 | 1003.37 | 1000.75 | 998.16 | 995.35 | 992.44
x1 = 0.0688 | 1005.83 | 1003.42 | 1000.76 | 998.14 | 995.31 | 992.36
x1 = 0.0821 | 1006.35 | 1003.53 | 1000.63 | 997.8 | 994.75 | 991.62
x1 = 0.098 | 1006.33 | 1003.14 | 1000.02 | 996.97 | 993.8 | 990.55
x1 = 0.112 | 1005.71 | 1002.53 | 999.19 | 996.16 | 992.78 | 989.51
